Where a SMILES comes first, the peptide text is derived from it. Bridges are numbered along the chain shown (N, C = ends). [ ]: non-standard residue; d: D form. The star is where a group is joined. Threoninol(2S,3R) = C[C@@H](O)[C@H](CO)N*
Key:
[1] = target: T1, Type-2 angiotensin II receptor (Homo sapiens, UniProt P50052); assay type: cell-based; conditions: cho-k1; also: in other assays of this panel Not Active means under 50% inhibition at 10 µM
T1 sequence (P50052 whole entry): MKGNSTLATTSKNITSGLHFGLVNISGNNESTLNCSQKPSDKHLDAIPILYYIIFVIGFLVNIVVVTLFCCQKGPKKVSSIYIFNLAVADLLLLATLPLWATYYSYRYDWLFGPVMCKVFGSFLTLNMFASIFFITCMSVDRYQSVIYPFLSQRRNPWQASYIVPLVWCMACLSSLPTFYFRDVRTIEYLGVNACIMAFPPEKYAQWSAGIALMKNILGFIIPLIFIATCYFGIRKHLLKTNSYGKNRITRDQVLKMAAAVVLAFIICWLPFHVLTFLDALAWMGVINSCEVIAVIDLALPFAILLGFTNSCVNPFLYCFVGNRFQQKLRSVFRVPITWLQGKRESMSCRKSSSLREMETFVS

B2 bradykinin receptor = target: T2, B2 bradykinin receptor (Homo sapiens, UniProt P30411); assay type: cell membranes, Membrane; conditions: chem-1; also: in other assays of this panel Not Active means under 50% inhibition at 10 µM
T2 sequence (P30411 whole entry): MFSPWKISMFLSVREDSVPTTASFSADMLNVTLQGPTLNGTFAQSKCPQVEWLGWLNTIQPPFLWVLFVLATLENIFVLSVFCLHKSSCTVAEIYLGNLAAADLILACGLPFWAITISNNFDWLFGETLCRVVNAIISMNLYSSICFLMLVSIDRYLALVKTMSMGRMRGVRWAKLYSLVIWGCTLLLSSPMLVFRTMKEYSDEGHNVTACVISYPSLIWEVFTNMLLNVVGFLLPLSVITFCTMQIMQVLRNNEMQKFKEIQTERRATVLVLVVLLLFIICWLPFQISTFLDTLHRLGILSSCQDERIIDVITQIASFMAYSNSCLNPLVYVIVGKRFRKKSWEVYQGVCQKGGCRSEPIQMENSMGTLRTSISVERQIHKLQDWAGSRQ

Substance-K receptor = target: T3, Substance-K receptor (Homo sapiens, UniProt P21452); assay type: cell membranes, CHO, Membrane; conditions: cho; also: in other assays of this panel Not Active means under 50% inhibition at 10 µM
T3 sequence (P21452 whole entry): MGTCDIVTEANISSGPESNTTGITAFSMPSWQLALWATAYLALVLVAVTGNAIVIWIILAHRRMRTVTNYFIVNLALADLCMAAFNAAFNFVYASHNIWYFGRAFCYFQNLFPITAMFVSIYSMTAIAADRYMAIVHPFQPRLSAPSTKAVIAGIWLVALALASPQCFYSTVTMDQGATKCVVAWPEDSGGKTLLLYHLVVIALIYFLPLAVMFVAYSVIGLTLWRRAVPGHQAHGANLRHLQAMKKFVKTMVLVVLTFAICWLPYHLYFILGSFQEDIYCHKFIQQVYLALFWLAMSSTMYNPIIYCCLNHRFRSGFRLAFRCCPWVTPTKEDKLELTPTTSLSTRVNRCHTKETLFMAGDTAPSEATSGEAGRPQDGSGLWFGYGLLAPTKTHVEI

[2] = target: T4, Cholecystokinin receptor type A (Homo sapiens, UniProt P32238); assay type: cell membranes, Membrane; conditions: 1321-n1; also: in other assays of this panel Not Active means under 50% inhibition at 10 µM
T4 sequence (P32238 whole entry): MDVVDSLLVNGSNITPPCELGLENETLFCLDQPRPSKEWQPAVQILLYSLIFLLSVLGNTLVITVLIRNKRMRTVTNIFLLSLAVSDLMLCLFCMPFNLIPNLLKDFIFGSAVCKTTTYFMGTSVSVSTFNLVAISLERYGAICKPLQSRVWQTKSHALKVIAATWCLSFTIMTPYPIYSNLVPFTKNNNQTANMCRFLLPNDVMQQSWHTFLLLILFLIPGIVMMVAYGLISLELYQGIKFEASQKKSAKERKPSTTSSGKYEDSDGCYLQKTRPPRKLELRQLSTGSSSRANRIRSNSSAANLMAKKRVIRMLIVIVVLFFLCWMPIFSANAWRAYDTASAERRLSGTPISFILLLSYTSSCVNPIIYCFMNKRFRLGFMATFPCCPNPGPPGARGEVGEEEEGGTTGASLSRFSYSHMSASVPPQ

Endothelin-1 receptor = target: T5, Endothelin-1 receptor (Homo sapiens, UniProt P25101); assay type: cell membranes, Membrane; conditions: cho-k1; also: in other assays of this panel Not Active means under 50% inhibition at 10 µM
T5 sequence (P25101 whole entry): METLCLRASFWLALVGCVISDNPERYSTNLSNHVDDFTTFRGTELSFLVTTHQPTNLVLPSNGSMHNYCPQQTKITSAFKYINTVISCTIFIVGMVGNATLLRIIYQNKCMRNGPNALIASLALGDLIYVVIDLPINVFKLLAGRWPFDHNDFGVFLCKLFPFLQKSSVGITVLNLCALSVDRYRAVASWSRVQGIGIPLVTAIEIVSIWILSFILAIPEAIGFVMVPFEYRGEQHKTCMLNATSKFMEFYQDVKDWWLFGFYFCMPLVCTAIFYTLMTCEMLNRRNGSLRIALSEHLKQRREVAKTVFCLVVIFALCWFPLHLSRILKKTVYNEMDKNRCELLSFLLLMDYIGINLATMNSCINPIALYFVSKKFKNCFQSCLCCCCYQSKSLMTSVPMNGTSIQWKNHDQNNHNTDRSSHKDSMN

[3] = DRUGMATRIX: Glutamate, AMPA radioligand binding (ligand: [3H] AMPA); assay type: cell membranes, Rattus norvegicus, Wistar, Cerebral cortex, Membrane; conditions: Not Active = under 50% inhibition at 10 µM
[4] = DRUGMATRIX: Leukotriene, BLT (LTB4) radioligand binding (ligand: [3H]LTB4); assay type: cell membranes, Membrane; conditions: u-937; Not Active = under 50% inhibition at 10 µM
Melanocortin receptor 5 = Melanocortin receptor 5 (Homo sapiens, UniProt P33032); assay type: cell membranes, Membrane; conditions: hek293; also: in other assays of this panel Not Active means under 50% inhibition at 10 µM
Sequence of Melanocortin receptor 5 (P33032 whole entry): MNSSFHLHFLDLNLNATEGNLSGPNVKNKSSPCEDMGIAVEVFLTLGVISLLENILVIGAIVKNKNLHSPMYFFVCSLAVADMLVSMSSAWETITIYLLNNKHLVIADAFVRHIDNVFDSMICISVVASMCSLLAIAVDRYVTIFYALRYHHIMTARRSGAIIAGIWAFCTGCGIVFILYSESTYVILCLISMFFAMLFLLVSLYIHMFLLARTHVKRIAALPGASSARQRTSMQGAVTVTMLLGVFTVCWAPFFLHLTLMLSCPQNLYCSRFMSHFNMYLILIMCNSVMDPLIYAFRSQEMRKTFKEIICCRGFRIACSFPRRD

COc1ccc2cc([C@H](C)C(=O)O)ccc2c1 [NAPROXEN]
Not Active: IC50 [1] | IC50 (B2 bradykinin receptor) | IC50 (Substance-K receptor) | IC50 [2] | IC50 (Endothelin-1 receptor) | IC50 [3] | Ki [3] | IC50 [4] | Ki [4] | IC50 (Melanocortin receptor 5)

CC(C)Cc1ccc(C(C)C(=O)O)cc1 (stereo not given) [IBUPROFEN]
Not Active: IC50 [1] | IC50 (B2 bradykinin receptor) | IC50 (Substance-K receptor) | IC50 [2] | IC50 (Endothelin-1 receptor) | IC50 [3] | Ki [3] | IC50 [4] | Ki [4] | IC50 (Melanocortin receptor 5)

CC(C)(C(=O)c1cccnc1)c1cccnc1 [METYRAPONE]
Not Active: IC50 [1] | IC50 (B2 bradykinin receptor) | IC50 (Substance-K receptor) | IC50 [2] | IC50 (Endothelin-1 receptor) | IC50 [3] | Ki [3] | IC50 [4] | Ki [4] | IC50 (Melanocortin receptor 5)

Cc1ncc([N+](=O)[O-])n1CCO [METRONIDAZOLE]
Not Active: IC50 [1] | IC50 (B2 bradykinin receptor) | IC50 (Substance-K receptor) | IC50 [2] | IC50 (Endothelin-1 receptor) | IC50 [3] | Ki [3] | IC50 [4] | Ki [4] | IC50 (Melanocortin receptor 5)

C[C@@H](O)[C@H](CO)NC(=O)[C@@H]1CSSC[C@H](NC(=O)[C@H](N)Cc2ccccc2)C(=O)N[C@@H](Cc2ccccc2)C(=O)N[C@H](Cc2c[nH]c3ccccc23)C(=O)N[C@@H](CCCCN)C(=O)N[C@@H]([C@@H](C)O)C(=O)N1 (H-[dF]CF[dW]KTC-{Threoninol(2S,3R)}; disulfide 2-7)
Not Active: IC50 [1] | IC50 (B2 bradykinin receptor) | IC50 (Substance-K receptor) | IC50 [2] | IC50 (Endothelin-1 receptor) | IC50 [3] | Ki [3] | IC50 [4] | Ki [4] | IC50 (Melanocortin receptor 5)

COc1ccc2[nH]c([S+]([O-])Cc3ncc(C)c(OC)c3C)nc2c1 (stereo not given) [OMEPRAZOLE]
Not Active: IC50 [1] | IC50 (B2 bradykinin receptor) | IC50 (Substance-K receptor) | IC50 [2] | IC50 (Endothelin-1 receptor) | IC50 [3] | Ki [3] | IC50 [4] | Ki [4] | IC50 (Melanocortin receptor 5)

Source: ChEMBL document CHEMBL1909046, “DrugMatrix in vitro pharmacology data”
